Results taken from patent publication US8470765B2, “Polypeptides and antibacterial or antiseptic use of same” (AnGes MG, Inc., priority 2009, dated 2013).
In brackets after ≈: the same amount, converted by molar mass. Where two headings read alike, the source gives them in different places. No end group written: not given here.

Tests used:
[1] = test system: Trichophyton mentagrophytes NBRC6124; conditions: NBRC6124
[2] = test system: Aspergillus niger NBRC 9455
[3] = test system: Bacteroides fragilis JCM 11019; conditions: JCM 11019
[4] = test system: Bacillus subtilis NBRC3134
[5] = test system: Alternaria alternata JCM5800; conditions: JCM5800
[6] = test system: Pseudomonas aeruginosa 6 (clinical strain); assay: microbe, parasite or virus in culture; conditions: for MIC: Pseudomonas aeruginosa, read-out: MIC Pseudomonas aeruginosa 6
Description: (§1) Bacteria (Escherichia coli ATCC 25922, Pseudomonas aeruginosa ATCC 27853, Staphylococcus aureus ATCC29213, Klebsiella pneumoniae JCM 1662, Enterobacter cloacae JCM 1232, Enterobacter aerogenes JCM 1235 and Staphylococcus epidermidis JCM 2414) were inoculated to Mueller-Hinton broth: MHB or LB medium, and cultured at a temperature and period suited for each strain. From the thus obtained colonies, each strain was inoculated to a fresh liquid medium and cultured for 16 to 20 hours. Then an aliquot having a volume (10 to 50 appropriate to each strain was inoculated to a fresh liquid medium and cultured for 4 to 6 hours, followed by the measurement of the absorbance at 600 nm. After comparing the turbidity with McFarland #0.5, the resultant was diluted with a medium. Each strain was added to about 10^5 CFU/mL (final concentration).
(§2) Further, the antibacterial activities against the clinical strains collected and isolated from infected patients were also examined. The tests were carried out for two methicillin-resistant Staphylococcus (MRSA) (MRSA (i) and (ii)), two methicillin-sensitive Staphylococcus (MSSA) (MSSA (i) and (ii)), five Pseudomonas aeruginosa, Pseudomonas aeruginosa 1, Pseudomonas aeruginosa 6, Pseudomonas aeruginosa 8. Pseudomonas aeruginosa 9 and Pseudomonas aeruginosa 12, totally 9 clinical strains. The MRSA and MSSA clinical strains were tested by the same method as Staphylococcus aureus ATCC29213, and Pseudomonas clinical strains were tested by the same method as Pseudomonas aeruginosa ATCC 27853.
(§3) Each of the peptide solutions to be tested was diluted with MHB to obtain a solution of 128 μg/mL. This solution was serially diluted with the medium to prepare peptide-containing media having concentrations of 128, 64, 32, 16, 8.0, 4.0 and 2.0 μg/mL respectively. […] By dilution with sterilized purified water to 1.0 mg/mL, positive control-containing media having concentrations of 16, 8, 4, 2, 1.0, 0.25, 0.12 and 0.06 μg/mL, respectively for TOB; 0.5, 0.12 and 0.06 μg/mL, respectively, for OX; and 16, 8, 4, 2, 1.0, 0.25, 0.12, 0.06, 0.06, 0.03 and 0.008 μg/mL, respectively, for MEPM, were prepared.
(§4) To a 96-well microtiter plate, 0.1 mL of the inoculation solution and 0.1 mL of the peptide- or positive control-containing medium having the respective concentration were added, and cultured at 37° C. for 16 to 24 hours (or a time period suited for the growth of the respective strain). The well not containing the sample was used as a negative control. After the culturing, the growth was visually observed, and the minimum concentration at which the growth was inhibited was defined as the minimum growth inhibition concentration (MIC).
(§5) The medium used in this test for bacteria was Mueller-Hinton broth. Independent experiments were carried out twice or more for each strain.

[7] = test system: Pseudomonas aeruginosa 9 (clinical strain); assay: microbe, parasite or virus in culture; conditions: for MIC: Pseudomonas aeruginosa, read-out: MIC Pseudomonas aeruginosa 9
Description: as §1, §2, §3, §4, §5

[8] = test system: Pseudomonas aeruginosa 12 (clinical strain); assay: microbe, parasite or virus in culture; conditions: for MIC: Pseudomonas aeruginosa, read-out: MIC Pseudomonas aeruginosa 12
Description: as §1, §2, §3, §4, §5

[9] = test system: Pseudomonas aeruginosa 1 (clinical strain); assay: microbe, parasite or virus in culture; conditions: for MIC: Pseudomonas aeruginosa, read-out: MIC Pseudomonas aeruginosa 1
Description: as §1, §2, §3, §4, §5

[10] = test system: Salmonella typhimurium JCM1652
[11] = test system: Staphylococcus aureus (S. aureus ATCC29213); assay: ATP assay (BacTiter-Glo) viability, Table 2; type: cell-based; conditions: ATCC29213, 3 h, read-out: Viability (%) S. aureus
Description: (§6) The antibacterial activity of the polypeptides was measured using the ATP assay method.
(§7) Using BacTiter-Glo Microbial Cell Viability Assay kit available from PROMEGA, the antibacterial activity of the peptides was evaluated from the viability of bacteria. That is, ATP amount in viable bacteria in cases where the concentration of the peptides was 10 μg/ml, was measured using a microtiter plate or test tubes.
(§8) With respect to the strains, Staphylococcus aureus (S. aureus ATCC29213) as Gram-positive bacteria, or, alternatively, Pseudomonas aeruginosa (P. aeruginosa ATCC27853) as Gram-negative bacteria, was used. The bacteria were cultured in media for 3 to 4 hours, and thereafter absorbances at A600 were measured. Bacterial suspensions were diluted with Mueller-Hinton broth (MHB) according to McFarland #0.5. Each strain was added so as to attain about 0.5-1×10^5 CFU/mL (final concentration) in terms of Escherichia coli. Each peptide was prepared and added to a microplate or test tubes so as to attain a final concentration of […], and the bacterial suspension was added thereto. […] The plate was incubated at 37° C. for 3 hours, and the amount of ATP in the culture media was measured. Relative values were calculated by comparison with the negative control, and these values were regarded as the viability.

[12] = test system: Pseudomonas aeruginosa (P. aeruginosa ATCC27853); assay: ATP assay (BacTiter-Glo) viability, Table 2; type: cell-based; conditions: ATCC27853, 3 h, read-out: Viability (%) P. aeruginosa
Description: as §6, §7, §8

[13] = Table 4, two tests, first/second value where not identical
[14] = Table 4, clinical strain, first/second value where not identical

| Compound | MIC Trichophyton mentagrophytes [1] [µg/mL] | MIC Aspergillus niger [2, 13] | MIC Bacteroides fragilis [3] [µg/mL] | MIC Bacillus subtilis ([4]; NBRC3134) [µg/mL] | MIC Alternaria alternata [5] [µg/mL] | MIC Pseudomonas aeruginosa 6 [6, 14] | MIC Pseudomonas aeruginosa 9 [7, 14] | MIC Pseudomonas aeruginosa 1 [9, 14] | MIC Salmonella Typhimurium ([10]; JCM1652) [µg/mL] | MIC Pseudomonas aeruginosa 12 [8, 14] | further results |
| --- | --- | --- | --- | --- | --- | --- | --- | --- | --- | --- | --- |
| IFLHRLKRMRKRLKRKLRLW-OH [SRP-7] | 32 | 8/16 | 128 | 4 | 32 | 16/64 | 64/128 | 32/64 | 4 |  | MIC Pseudomonas aeruginosa 12 ([8]; 12 (clinical strain)): 16 µg/mL |
| GRLKRMGERLKRKIQKWIRW-NH2 [SRP-15] | 32 | 8/16 | 16 | 4 | 64 |  | 8/64 |  |  | 8/16 | MIC Pseudomonas aeruginosa 6 ([6]; 6 (clinical strain)): 16 µg/mL; MIC Pseudomonas aeruginosa 1 ([9]; 1 (clinical strain)): 16 µg/mL; MIC Salmonella Typhimurium [10, 13]: 8/4 |
| LIFLHRLKRMRKRLKRKLRL-NH2 [SRP-12] |  | 8/16 |  |  |  | 32/64 | 16/64 | 16/32 |  |  | MIC Pseudomonas aeruginosa 12 ([8]; 12 (clinical strain)): 16 µg/mL |
| RLKRMRKRLKRKLRLWHRKRYK-NH2 [SRP-8] | 32 | 16/32 | > 128 | 8 | 32 |  | 16/64 | 16/32 | 64 | 16/32 | MIC Pseudomonas aeruginosa 6 ([6]; 6 (clinical strain)): 16 µg/mL |
| KLIFLRELRRLRKRLKRKLR-NH2 [SRP-16] | 32 | 8/16 | 32 |  | 64 |  |  | 16/32 | 8 | 8/16 | MIC Bacillus subtilis [4, 13]: 8/4; MIC Pseudomonas aeruginosa 6 ([6]; 6 (clinical strain)): 16 µg/mL; MIC Pseudomonas aeruginosa 9 ([7]; 9 (clinical strain)): 64 µg/mL |
| C[C@@H](O)[C@H]1C(=O)N2C(C(=O)O)=C(S[C@@H]3CN[C@H](C(=O)N(C)C)C3)[C@H](C)[C@H]12 [meropenem, reference compound] |  |  |  |  |  |  |  |  |  |  | MIC [6]: 8 to 16 µg/mL (≈ 0.0209 to 0.0417 mM); MIC [7]: < 4000 µg/mL; MIC [8]: < 4000 µg/mL; MIC [9]: < 4000 µg/mL |
| GRLKRMGKRLKRKIQKWARW-NH2 [SRP-14] | 16 | 4/8 | 128 | 4 | 32 | 8/16 | 16/32 |  |  | 8/16 | MIC Pseudomonas aeruginosa 1 ([9]; 1 (clinical strain)): 16 µg/mL; MIC Salmonella Typhimurium [10, 13]: 4/8 |
| KNLRRIIRKIIHIIKKYG-NH2 [Ovispirin-1, reference compound] | 32 |  | 1 | 2 | 64 | 32/64 | 32/128 | 16/64 | 16 | 16/32 | MIC Aspergillus niger ([2]; NBRC 9455): 32 µg/mL |
| RLKRMRKRLKRKLRLW-NH2 [SRP-17] | 16 | 8/16 | > 128 | 8 | 32 | 32/64 | 64/128 | 32/64 | 16 | 16/64 |  |
| KLIFLHRLKRELRKRLKRKLR-NH2 [SRP-13] | 32 |  | 64 | 4 | 64 | 8/16 |  | 16/32 | 4 | 8/16 | MIC Aspergillus niger ([2]; NBRC 9455): 16 µg/mL; MIC Pseudomonas aeruginosa 9 ([7]; 9 (clinical strain)): 64 µg/mL |
| NC[C@H]1O[C@H](O[C@H]2[C@H](O)[C@@H](O[C@H]3O[C@H](CO)[C@@H](O)[C@H](N)[C@H]3O)[C@H](N)C[C@@H]2N)[C@H](N)C[C@@H]1O [tobramycin, reference compound] |  |  |  |  |  |  |  |  |  |  | viability at 1 µg/mL [11]: 3.6%; viability at 1 µg/mL [12]: 1.8%; MIC [6]: < 4000 µg/mL; MIC [7]: < 4000 µg/mL; MIC [8]: < 4000 µg/mL; MIC [9]: > 16000 µg/mL |
